Measured values from patent publication US5342850A, “Thiazolidine-2,4-dione derivatives, their salts and their preparation processes” (Kyorin Pharmaceutical Co., Ltd., priority 1991, dated 1994).

Assays:
[1] = target: T1, aldose reductase extracted from rat lens (Rattus norvegicus, UniProt P07943); experiment: Inhibition of aldose reductase in vitro; format: biochemical; details: method of Hyman and Kinoshita
T1 construct: aldose reductase extracted from rat lens; from tissue; host or cells: rat lens
Source text: Inhibition of aldose reductase in vitro
According to the method of Hyman and Kinoshita (J. Biol. Chem., 240, 877, 1965), inhibitory activity of the compound of Example 23 on aldose reductase extracted from rat lens was investigated. As a result, the following IC50 value was obtained (Table 3).

blood glucose [2] = experiment: Improvement of glucose tolerance in genetically obese mice (OGTT); format: in vivo, Genetically obese mice (CS57BL ob/ob mice); details: fasted 18 hours, 2 g/kg glucose orally, blood at 0, 30, 60, 120 min
Protocol: Improvement of glucose tolerance in genetically obese mice
Genetically obese mice (CS57BL ob/ob mice) were orally administered with the compound of Example 23 once daily for 5 days at 10, 30 or 100 mg/kg/day, respectively. They were fasted for 18 hours and then 2 g/kg of glucose was orally administered. Blood samples were collected from the tail vein 0, 30, 60 and 120 minutes after the administration of glucose for the determination of blood glucose (Table 2).

[3] = test system: sorbitol content in nerve; experiment: Inhibition on sorbitol accumulation in nerve of diabetic rats; format: in vivo; details: Rattus norvegicus, po, 336 h, streptozotocin rats, 4, 16 or 64 mg/kg/day p.o. once daily 2 weeks
Protocol: (§1) Inhibition on sorbitol accumulation in tissues of diabetic rats
(§2) After diabetic rats were prepared by injecting streptozotocin, they were orally administered with the compound of Example 23 once daily 2 weeks at 4, 16 or 64 mg/kg/day, respectively. The sorbitol content in nerve and retina was determined to calculate ED50 value (Table 4).

[4] = test system: sorbitol content in retina; experiment: Inhibition on sorbitol accumulation in retina of diabetic rats; format: in vivo; details: Rattus norvegicus, po, 336 h, streptozotocin rats, 4, 16 or 64 mg/kg/day p.o. once daily 2 weeks
Protocol: as §1, §2

blood glucose [5] = experiment: Enhancement of insulin sensitivity in rats; format: in vivo; details: 10 mg/kg/day p.o. once daily for 5 days; fasted 18 hours; insulin 0.1 unit/kg i.p.; n=5; *P < 0.01
Protocol: Blood samples were collected from the tail vein 0 and 1 hour after the injection of insulin for the determination of blood glucose (Table 1).

IC50 [1]: 90 nM
Structure (SMILES): O=C1NC(=O)C(c2ccc(NC(=O)c3ccc(Cl)cc3Cl)cc2)S1 (stereo not shown) [Example 23]
OGTT (% of control) (blood glucose [2]; 10 mg/kg/day p.o. once daily for 5 days): 93.5 % of control | OGTT (% of control) (blood glucose [2]; 30 mg/kg/day p.o. once daily for 5 days): 89.2 % of control | OGTT (% of control) (blood glucose [2]; 100 mg/kg/day p.o. once daily for 5 days): 74.1 % of control | ED50 [3]: 14.5 mg/kg | ED50 [4]: 26.5 mg/kg | 0 hour value - 1 hour value (blood glucose) (blood glucose [5]): 19.4 ± 1.5 mg %
